Broadly, the pEC50 is −log10 of the EC50, conventionally taken in molar units.

pEC50: −log10 of the molar value.

This experiment relates to HCV genotype 1a replicon cell line. Put plainly: EC50 in HCV genotype 1a replicon cell line. It is filed as cell-based. The settings on record: Hepatitis C virus, read-out: EC50 value for the HCV genotype 1a replicon cell line. For orientation: Replicon systems follow genome replication, usually without infectious particles.
As to `Cc1cnc(C(=O)N[C@H]2CCCCC/C=C\[C@@H]3C[C@@]3(C(=O)NS(=O)(=O)C3CC3)NC(=O)[C@@H]3C[C@@H](Oc4nc5ccccc5c5ccccc45)CN3C2=O)cn1` [Compound 1, (2R,6S,13aS,14aR,16aS,Z)—N-(cyclopropylsulfonyl)-6-(5-methylpyrazine-2-carboxamido)-5,16-dioxo-2-(phenanthridin-6-yloxy)-1,2,3,5,6,7,8,9,10,11,13a,14,14a,15,16,16a-hexadecahydrocyclopropa[e]pyrrolo[1,2-a][1,4]diazacyclopentadecine-14a-carboxamide], the negative-log EC50 (pEC50) is 9.05.

Regarding `COc1c(-c2ccc3cc(NS(C)(=O)=O)ccc3c2)cc(-n2ccc(=O)[nH]c2=O)cc1C(C)(C)C` [Compound 2, N-(6-(3-tert-butyl-5-(2,4-dioxo-3,4-dihydropyrimidin-1(2H)-yl)-2-methoxyphenyl)naphthalen-2-yl)methanesulfonamide], the pEC50 was 8.11.

With `COC(=O)N[C@H](C(=O)N1CCC[C@H]1C(=O)Nc1ccc([C@@H]2CC[C@@H](c3ccc(NC(=O)[C@@H]4CCCN4C(=O)[C@@H](NC(=O)OC)C(C)C)cc3)N2c2ccc(C(C)(C)C)cc2)cc1)C(C)C` [Compound 4], the pEC50 was 11.00.

(Values after patent publication US8685984B2, “Methods for treating HCV” (AbbVie Inc., priority 2011, dated 2014).)
